Patent US10071976B2, “Small molecule fatty acid synthase inhibitors” (Sanford Burnham Prebys Medical Discovery Institute, priority 2014, dated 2018)

What was measured:
FASN-TE = FASN-TE (Homo sapiens, UniProt P49327); experiment: In-vitro biochemical assay measuring FAS-TE inhibition (OMFH substrate, fluorescence)
Experimental: Min wells: Substrate+No enzyme+DMSO, Max wells: Substrate+Enzyme+DMSO, Sample wells: Substrate+Enzyme+Test compounds, Reference compound: Orlistat (make a fresh 10 mM stock in DMSO each time). 384-well black, low-volume plate (Greiner #784076)
Assay Protocol: • 1) ECHO transfer 160 nL of 125× Compound (or DMSO for control wells) per well. • 2) For Max and Sample wells: Add 10 μL of Enzyme (2×; 1.8 μM) prepared in RXN Buffer. For Min wells: Add 10 μL of RXN Buffer (No Enzyme). • 3) For all wells: Add 10 μL of Substrate (2×; 20 μM) prepared in diH2O+10% DMSO. • 4) Centrifuge plate for 1 minute at 1,000 rpm. • 5) Measure fluorescence every 5 minutes for 1-1.5 hours using the BMG POLARstar (ex 485 nm/em 520 nm; Gain=1015; 25 flashes). • 6) All volumes can be adjusted but the final DMSO concentration should be kept at about 6%.
Data Analysis: • 1) Calculate slopes and express as % Activity (Min wells=0%; Max wells=100%). • 2) Then, using Prism, calculate the IC50 values.

FASN = molecular target: T1, FASN (Homo sapiens, UniProt P49327); experiment: Competition with activity-based probe FP-PEG-TAMRA in PC-3 whole cell lysate: FASN; format: binding; settings: PC-3 lysate, 20 μM final, pH 7.8
T1 construct: lysates of the prostate tumor line (PC3), which expresses FASN; endogenous in cells; host or cells: PC-3 prostate tumour cells (whole cell lysate)
T1 sequence (P49327 whole entry): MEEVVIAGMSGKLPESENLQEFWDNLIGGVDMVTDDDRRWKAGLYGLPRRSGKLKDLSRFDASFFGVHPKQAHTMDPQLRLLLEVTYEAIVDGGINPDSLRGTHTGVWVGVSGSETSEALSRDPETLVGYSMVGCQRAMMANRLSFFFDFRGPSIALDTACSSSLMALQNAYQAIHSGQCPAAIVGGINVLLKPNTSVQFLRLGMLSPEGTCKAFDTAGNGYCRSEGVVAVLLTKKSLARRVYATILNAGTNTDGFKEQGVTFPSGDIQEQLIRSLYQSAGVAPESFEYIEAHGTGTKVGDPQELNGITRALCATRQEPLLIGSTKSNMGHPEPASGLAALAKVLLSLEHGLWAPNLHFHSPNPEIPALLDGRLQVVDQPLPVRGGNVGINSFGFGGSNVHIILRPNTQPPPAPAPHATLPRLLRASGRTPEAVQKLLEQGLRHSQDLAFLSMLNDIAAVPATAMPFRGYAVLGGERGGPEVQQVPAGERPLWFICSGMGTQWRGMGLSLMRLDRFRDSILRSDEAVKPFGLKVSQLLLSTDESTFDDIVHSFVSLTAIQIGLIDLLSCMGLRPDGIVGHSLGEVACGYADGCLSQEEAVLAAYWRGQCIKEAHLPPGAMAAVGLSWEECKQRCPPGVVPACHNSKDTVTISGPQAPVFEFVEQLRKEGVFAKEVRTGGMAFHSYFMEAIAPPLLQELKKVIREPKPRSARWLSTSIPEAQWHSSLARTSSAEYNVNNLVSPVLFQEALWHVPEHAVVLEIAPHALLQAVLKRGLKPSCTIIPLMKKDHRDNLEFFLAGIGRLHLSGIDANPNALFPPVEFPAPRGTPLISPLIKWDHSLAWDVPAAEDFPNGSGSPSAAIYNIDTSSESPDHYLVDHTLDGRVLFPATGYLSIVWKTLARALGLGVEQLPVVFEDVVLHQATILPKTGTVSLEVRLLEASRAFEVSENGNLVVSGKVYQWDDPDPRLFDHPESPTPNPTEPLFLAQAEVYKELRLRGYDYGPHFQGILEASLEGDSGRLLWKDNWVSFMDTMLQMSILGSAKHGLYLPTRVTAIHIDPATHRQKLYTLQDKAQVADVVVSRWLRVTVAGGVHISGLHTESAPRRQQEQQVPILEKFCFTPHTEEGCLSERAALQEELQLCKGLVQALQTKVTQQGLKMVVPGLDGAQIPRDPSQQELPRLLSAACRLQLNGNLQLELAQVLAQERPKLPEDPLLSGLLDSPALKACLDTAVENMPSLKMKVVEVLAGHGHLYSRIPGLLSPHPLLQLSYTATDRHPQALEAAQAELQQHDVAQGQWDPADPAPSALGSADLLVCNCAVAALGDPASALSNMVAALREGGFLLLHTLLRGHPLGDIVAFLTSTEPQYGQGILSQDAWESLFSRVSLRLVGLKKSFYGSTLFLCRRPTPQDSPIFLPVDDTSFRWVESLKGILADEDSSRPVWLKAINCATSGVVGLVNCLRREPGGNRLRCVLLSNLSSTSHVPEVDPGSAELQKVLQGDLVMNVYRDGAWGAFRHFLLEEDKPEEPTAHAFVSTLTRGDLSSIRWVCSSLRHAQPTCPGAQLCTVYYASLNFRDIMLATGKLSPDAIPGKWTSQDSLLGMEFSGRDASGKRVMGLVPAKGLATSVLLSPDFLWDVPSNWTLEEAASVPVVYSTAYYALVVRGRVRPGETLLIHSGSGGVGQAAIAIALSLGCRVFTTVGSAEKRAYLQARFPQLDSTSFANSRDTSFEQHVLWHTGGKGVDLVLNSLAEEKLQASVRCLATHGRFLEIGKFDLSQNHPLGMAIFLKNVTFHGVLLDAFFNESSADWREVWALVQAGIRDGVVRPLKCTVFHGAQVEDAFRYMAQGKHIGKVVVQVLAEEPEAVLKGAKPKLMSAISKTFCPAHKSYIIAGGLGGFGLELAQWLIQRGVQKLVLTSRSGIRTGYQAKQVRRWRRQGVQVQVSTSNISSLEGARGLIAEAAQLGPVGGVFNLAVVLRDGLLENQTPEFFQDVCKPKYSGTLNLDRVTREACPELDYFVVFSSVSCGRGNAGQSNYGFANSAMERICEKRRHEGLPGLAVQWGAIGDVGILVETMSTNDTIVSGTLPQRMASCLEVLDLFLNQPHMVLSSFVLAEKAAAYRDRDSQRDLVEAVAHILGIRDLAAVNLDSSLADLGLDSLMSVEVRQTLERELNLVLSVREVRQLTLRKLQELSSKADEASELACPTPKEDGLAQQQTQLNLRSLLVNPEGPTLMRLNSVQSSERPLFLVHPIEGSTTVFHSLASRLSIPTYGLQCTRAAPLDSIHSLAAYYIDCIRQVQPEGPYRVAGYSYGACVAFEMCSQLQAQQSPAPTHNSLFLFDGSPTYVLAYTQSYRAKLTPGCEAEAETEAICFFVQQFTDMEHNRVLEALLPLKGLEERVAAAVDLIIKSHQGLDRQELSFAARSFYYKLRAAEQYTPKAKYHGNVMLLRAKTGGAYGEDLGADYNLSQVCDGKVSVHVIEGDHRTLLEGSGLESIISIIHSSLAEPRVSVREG
Experimental: Studies were conducted to determine the selectivity of compound 16 for FASN over other human thioesterases. The ability of the compounds to bind the FASN holoenzyme was tested by assessing their ability to compete for the binding of an activity-based probe that covalently attaches to the active site of the FASN thioesterase. Thioesterases are members of the serine hydrolase family, which also includes a number of other types of enzymes including proteases, dipeptidyl peptidases, epoxide hydrolases, etc. To help assess the selectivity of compound 16, an activity-based probe polyethyleneglycol-6-carboxytetramethyl-rhodamine (FP-PEG-TAMRA) that binds covalently to the catalytic serine of all serine hydrolases was used. These studies were done by assessing the ability of compound 16 to compete for the binding of the activity-based probe in whole cell lysates. Several analogs of compound 16 were tested in this assay using lysates of the prostate tumor line (PC3), which expresses FASN, along with numerous other serine hydrolases. The PC-3 lysate was incubated with 8 different FASN inhibitors, including compounds 1, 16 and 97. Then the activity-based probe (FP-PEG-TAMRA) was added to each sample to label the serine hydrolases in the lysate.

FASN thioesterase = molecular target: T2, FASN thioesterase (Homo sapiens, UniProt P49327); experiment: FP-PEG-TAMRA labeling of recombinant FASN thioesterase; format: binding; settings: recombinant enzyme, 20 μM final, pH 7.8
T2 construct: label the active site of the FASN thioesterase and ACOT4
T2 sequence (P49327 2207-2511 limits assumed): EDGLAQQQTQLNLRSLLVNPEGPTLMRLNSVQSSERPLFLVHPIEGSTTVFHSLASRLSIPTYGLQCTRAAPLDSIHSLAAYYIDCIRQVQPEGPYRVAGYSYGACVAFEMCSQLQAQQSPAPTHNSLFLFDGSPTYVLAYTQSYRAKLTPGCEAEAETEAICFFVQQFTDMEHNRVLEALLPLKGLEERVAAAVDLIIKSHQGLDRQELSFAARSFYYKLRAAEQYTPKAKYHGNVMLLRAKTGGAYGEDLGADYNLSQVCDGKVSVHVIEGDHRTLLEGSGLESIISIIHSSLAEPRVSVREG
Experimental: Additionally, studies were performed to test the selectivity of Compounds 1, 16, 22, and 37 for the FASN thioesterase over its most closely related human homolog, the enzyme called ACOT4 (see FIG. 3). Both proteins were mixed and pretreated with the compound (20 μM final, pH 7.8) before addition of the fluorescent activity probe FP-PEG-TAMRA. Respective fluorescence of the bands was detected on a Hitachi flatbed scanner and a greyscale version used for quantitative analysis using ImageJ. Recombinant forms of each enzyme were incubated with compound 16, compound 1, compound 37, and compound 22. FP-TAMRA was included in this mixture to label the active site of the FASN thioesterase and ACOT4. […] These findings further attest to the high degree of selectivity of compounds 1, 16, 37 and 22 for the FASN thioesterase.

Plasma stability, human = format: in vitro ADME
Text: (§1) Plasma stability is a measure of the stability of small molecules and peptides in plasma and is an important parameter, which can strongly influence the in vivo efficacy of a test compound. Drug candidates are exposed to enzymatic processes (proteinases, esterases) in plasma, and they can undergo intramolecular rearrangement or bind irreversibly (covalently) to proteins.

Plasma stability, mouse = format: in vitro ADME
Text: as §1

in vitro = settings: human

Chain of FASN-TE (P49327 2207-2511 limits assumed): as above

SMILES: CCC(CC)C(=O)Nc1nc(-c2ccc(S(=O)(=O)N3CCOCC3)cc2)cs1 [Compound 16, 2-Ethyl-N-(4-(4-(morpholinosulfonyl)phenyl)thiazol-2-yl)butanamide]
- IC50 (FASN-TE): 334 nM
- inhibition of FASN (blocking of FP-TAMRA binding) (FASN): showed inhibition of FASN
- binding of FP-TAMRA to the active site of the FASN thioesterase (FASN thioesterase): blocked the binding of FP-TAMRA
- Plasma Stability (% Remaining at 3 hrs) (Plasma stability, human; Human, 3 hrs): 100/100%
- plasma stability (Plasma stability, human; human plasma): good stability
- Plasma Stability (% Remaining at 3 hrs) (Plasma stability, mouse; Mouse, 3 hrs): 100/100%
- plasma stability (Plasma stability, mouse; mouse plasma): good stability
- CC50 (in vitro): > 50000 nM
